The text below walks through data of patent US5834487A, “Inhibition of 26S and 20S proteasome by indanones” (CV Therapeutics, priority 1996, dated 1998).

For orientation: IC50 means the midpoint of a concentration-inhibition curve. A low value points to greater potency in that assay.

The target of the experiment is T1, 20S catalytic subunit of the proteasome (multicatalytic proteinase complex) (Bos taurus, UniProt Q32KL2).
T1 construct: was purified to homogeneity from bovine brain according to published methods; from tissue; host or cells: bovine brain
Description: 20S proteasome chymotryptic activity, fluorogenic peptide cleavage. The experiment is classed as biochemical, bovine. Particulars: 50 μM succinyl-leu-leu-val-tyr-7-amino-4-methyl coumarin, 15 minutes at 37° C, pH7.5. On the procedure: Compounds of this invention prepared according to the method of Example 1 were tested as follows. The 20S catalytic subunit of the proteasome (also known as the multicatalytic proteinase complex) was purified to homogeneity from bovine brain according to published methods (Wilk S. and Orlowski, M, 40 842 J. Neurochem (1983)). The chymotryptic activity of the complex is measured by the increase in fluorescence following cleavage of the substrate peptide succinyl-leucine-leucine-valine-tyrosine-7-amino-4-methyl coumarin. The standard in vitro assay consists of 2 μg 20S proteasome, 0.1-100 μg/ml proteasome inhibitor in 200 μl 50 mM HEPES, containing 0.1% sodium dodecyl sulphate, pH7.5. The proteolytic reaction is initiated by the addition of 50 μM fluorogenic peptide substrate and allowed to progress for 15 minutes at 37° C. The reaction is terminated by the addition of 100 μl of 100 mM acetate buffer, pH4.0. The rate of proteolysis is directly proportional to the amount of liberated aminomethylcoumarin which is measured by fluorescent spectroscopy (EX 370 nm, EM 430 nm).
In the case of `COc1ccc2c(c1)C(CC(=O)NC(Cc1ccccc1)C(N)=O)CC2=O` (mixture of isomers) [Compound 24], the IC50 was over 10 µg/mL. Compound `COc1ccc2c(c1)C(CC(=O)N1Cc3ccccc3CC1C(N)=O)CC2=O` (mixture of isomers) [Compound 25] came in with an IC50 of over 10 µg/mL.

The compound `COc1ccc2c(c1)C(CC(=O)N1Cc3ccccc3CC1C(=O)NC(CC(C)C)C(N)=O)CC2=O` (mixture of isomers) [Compound 26] showed a concentration for half-maximal inhibition (IC50) of over 10 µg/mL.

In turn, `COc1ccc2c(c1)C(CC(=O)NC(Cc1ccccc1)C(=O)NC(CC(C)C)C(N)=O)CC2=O` (mixture of isomers) [Compound 27] registered an IC50 of 10 µg/mL. In the case of `COc1ccc2c(c1)C(CC(=O)NC(CC(C)C)C(=O)NC(C)(C)C(N)=O)CC2=O` (mixture of isomers) [Compound 28] it was over 10 µg/mL. As for `COc1ccc2c(c1)C(CC(=O)NC(CC1CCCCC1)C(N)=O)CC2=O` (mixture of isomers) [Compound 29], the figure is over 10 µg/mL. `COc1ccc2c(c1)C(CC(=O)NC(C(=O)NC(CC(C)C)C(N)=O)C(C)C)CC2=O` (mixture of isomers) [Compound 30] yielded an IC50 of over 10 µg/mL.

The compound `COc1ccc2c(c1)C(CC(=O)N1CCCC1C(=O)NC(CC(C)C)C(N)=O)CC2=O` (mixture of isomers) [Compound 31] yielded an IC50 of 10 µg/mL. As to `COc1ccc2c(c1)C(CC(=O)NC(CC(C)C)C(=O)NC(C(N)=O)C(C)C)CC2=O` (mixture of isomers) [Compound 33], the IC50 is over 10 µg/mL. `COc1ccc2c(c1)C(CC(=O)NC(C(=O)NC(C(N)=O)C(C)C)C(C)C)CC2=O` (mixture of isomers) [Compound 34] showed an IC50 of over 10 µg/mL. `COc1ccc2c(c1)C(CC(=O)NC(CC1CCCCC1)C(=O)NC(CC1CCCCC1)C(N)=O)CC2=O` (mixture of isomers) [Compound 35]: the concentration for half-maximal inhibition (IC50) was over 10 µg/mL.

In turn, `COc1ccc2c(c1)C(CC(=O)NC(C(N)=O)c1ccccc1)CC2=O` (mixture of isomers) [Compound 36] showed an IC50 of over 10 µg/mL. The compound `COc1ccc2c(c1)C(CC(=O)NC(C(=O)NC(CC(C)C)C(N)=O)c1ccccc1)CC2=O` (mixture of isomers) [Compound 37] displayed an IC50 of over 10 µg/mL. As for `COc1ccc2c(c1)C(CC(=O)NC(CC(C)C)C(=O)NCC(=O)NCC(N)=O)CC2=O` (mixture of isomers) [Compound 41], the figure is over 10 µg/mL; as for `COc1ccc2c(c1)C(CC(=O)NCC(=O)NC(CC(C)C)C(=O)NCC(N)=O)CC2=O` (mixture of isomers) [Compound 42], over 10 µg/mL; as for `CCCCC(NC(=O)CC1CC(=O)c2ccc(OC)cc21)C(=O)NC(CC(C)C)C(=O)NCC(N)=O` (mixture of isomers) [Compound 43], over 10 µg/mL. The compound `CCCC(NC(=O)CC1CC(=O)c2ccc(OC)cc21)C(=O)NC(CC(C)C)C(=O)NCC(N)=O` (mixture of isomers) [Compound 44] gave an IC50 of over 10 µg/mL. `COc1ccc2c(c1)C(CC(=O)NC(Cc1ccccc1)C(=O)NC(CC(C)C)C(=O)NCC(N)=O)CC2=O` (mixture of isomers) [Compound 45] displayed an IC50 of over 10 µg/mL.

With `COc1ccc2c(c1)C(CC(=O)NC(CC1CCCCC1)C(=O)NC(CC(C)C)C(=O)NCC(N)=O)CC2=O` (mixture of isomers) [Compound 46], the IC50 is over 10 µg/mL.

`COc1ccc2c(c1)C(CC(=O)NC(C(=O)NC(CC(C)C)C(=O)NCC(N)=O)C(C)C)CC2=O` (mixture of isomers) [Compound 47]: the half-inhibitory concentration (IC50) was over 10 µg/mL.

As for `COc1ccc2c(c1)C(CC(=O)NC(C(=O)NC(CC(C)C)C(=O)NCC(N)=O)c1ccccc1)CC2=O` (mixture of isomers) [Compound 48], the IC50 was over 10 µg/mL. As for `COc1ccc2c(c1)C(CC(=O)N1CCCC1C(=O)NC(CC(C)C)C(=O)NCC(N)=O)CC2=O` (mixture of isomers) [Compound 49], the figure is over 10 µg/mL.
